According to patent publication US20150143553A1, “Methods And Compositions Comprising A Drosophila Model Of Amyotrophic Lateral Sclerosis” (priority 2013, published 2015):

Experiments:
[1] = test system: Drosophila larvae expressing G298S TDP-43 in motor neurons; experiment: Drug screen: rescue of lethality caused by G298S TDP-43 expression in motor neurons (D42 Gal4); type: in vivo; conditions: TDP^G298S
Text: […] Larvae expressing TDP-43 (wild type or mutant, as shown) are raised on drug containing food.
[…] Larvae expressing TDP-43 (wt or mutant) were raised on drug containing food.
Using a Drosophila model of ALS based on TDP-43 that recapitulates several aspects of the disease pathophysiology (33, 35), a drug screen aimed at identifying FDA approved compounds with neuroprotective potential in vivo were designed (FIG. 37A). […] This phenotype was used to screen for drug candidates with therapeutic potential as determined by their ability to rescue pupal lethality and produce viable adults with extended wings (FIG. 37A).
Larvae expressing TDP-43 in motor neurons (D42>TDP-43) were raised on fly food containing different amounts of drug (1, 10 and 25 μM, see Materials and Methods for details) or Dimethyl Sulfoxide (DMSO) as vehicle control (FIG. 37B, C).
UAS TDP-43 males were crossed with D42-Gal4 female virgins on fly food containing either DMSO or pioglitazone. For DMSO controls, the same volume of DMSO as the corresponding drug concentration was added. Bromophenol blue was added to a final concentration of approximately 0.02% to ensure homogeneity. Crosses were made on drug food with 3 female virgins and 2 males in each vial, and were maintained at 25° C. unless noted. The parents were discarded after 5-7 days then the vials were screened for adult progeny with straight wings from day 14 to day 25. All adults were screened for TDP-43 expression by visualizing the YFP tag. Total number of pupae was counted on day 25. Percent survival was calculated using the formula (total number of straight-winged adults/total number of pupae)×100. All experiments were performed in triplicate.

[2] = test system: ALS patients; conditions: ALS patients administered pioglitazone; cited from earlier work
[3] = test system: D42>TDPWT larvae; experiment: Global metabolomic profiling, D42>TDPWT larvae; type: in vivo, Drosophila; conditions: 1 μM pioglitazone
Procedure: To gain insight into the mechanism by which pioglitazone is neuroprotective, a global metabolomic approach was taken using larvae expressing TDP-43 in motor neurons (D42>TDP-43) and D42>w1118 controls raised on either 1 μM pioglitazone, DMSO or regular food. To determine specific metabolites that were restored by pioglitazone in the context of TDPWT, the metabolic profiles of D42>TDPWT larvae raised on drug food versus DMSO were compared and 111 alterations were found among a total of 572 metabolites detected in the samples. […] This led to the identification of 28 metabolites altered by both pioglitazone and TDPWT (Table 2). […] In addition, 6 metabolites further altered by pioglitazone in the same direction as that of TDP-43 were found, consistent with a potential worsening effect. Among the 28 metabolites some were also affected by DMSO alone as determined by comparing the metabolic profiles of D42>TDPWT larvae raised on DMSO and D42>TDPWT larvae raised on regular food.
D42 Gal4 virgin females were crossed with UAS TDP-43 YFP or w1118 males and raised on regular food (RF), DMSO or 1 μM Pioglitazone (PGZ) containing food. 50-60 third instar larvae (approximately 50-60 mg) were collected and flash frozen in liquid nitrogen. Samples were made in 5 replicates. Global metabolomic study was performed following standard protocols by Metabolon, INC (Durham, N.C.). Briefly, protein samples were divided into four fractions: one for analysis by UPLC-MS/MS with positive ion mode electrospray ionization, one for analysis by UPLC-MS/MS with negative ion mode electrospray ionization, one for analysis by GC-MS, and one sample was reserved for backup. Raw data was extracted, peak-identified and QC processed using Metabolon's hardware and software. Compounds were identified by comparison to library entries of purified standards or recurrent unknown entities. Peaks were quantified using area-under-the-curve. Following normalization to Bradford protein concentration data were log transformed. Missing values for a given metabolite were imputed with the minimum observed value for each compound based on the assumption that they were below the limit of instrument detection sensitivity. For studies spanning multiple days, a data normalization step was performed to correct variation resulting from instrument inter-day tuning differences.
Student's T test was used for statistical analysis of larval turning experiments and Log-rank test was used for survival analyses. For metabolomics standard statistical analyses were performed in ArrayStudio on log transformed data. For those analyses not standard in ArrayStudio, the programs R (cran.r-project.org/) or JMP (jmp.com) were used. Welch's two-sample t-test and matched pairs t-test were used to compute p-values. False discovery rates were calculated as described (69).

[4] = test system: Drosophila larvae expressing wild-type TDP-43 in motor neurons; experiment: Drug screen: rescue of lethality caused by wild-type TDP-43 expression in motor neurons (D42 Gal4); type: in vivo; conditions: for Av. % rescue (number of rescued adults/total number of pupae × 100%): TDP^WT; for Preliminary rescue result: adults with normal wings: transgene WT2, 50 μM in fly food; for Rescue Effect: transgene wt, primary screening (50 μM), out of 15-20 pupae
[5] = test system: wild-type control larvae (D42>w1118); experiment: Larval turning assay, wild-type control larvae; type: in vivo, Drosophila; conditions: 1 μM pioglitazone
Procedure: (§1) Next an ideal drug concentration was determined using a more sensitive and disease relevant assay that measures neuromuscular coordination, namely larval turning (see Materials and Methods for details). Larvae expressing TDPWT or TDPG298S in motor neurons (D42>TDP-43) were raised on food containing either 1, 5, 10, 25 μM pioglitazone or DMSO and assayed for their locomotor ability using larval turning assays.
(§2) Assays were performed as described herein (33, 35). Briefly, wandering third instar larvae were placed on room temperature grape juice plates, allowed to acclimate then gently turned ventral side up. The time required for larvae to flip back to dorsal side up and start moving forward was noted as the larval turning time. At least 30 larvae per genotype and condition were tested.

[6] = test system: Larvae expressing TDPG298S in motor neurons; experiment: Larval turning assay, D42>TDPG298S; type: in vivo, Drosophila; conditions: 1 μM pioglitazone in food; DMSO 25.8+/−1.8 sec
Procedure: (§3) Assays were performed as disclosed herein. Briefly, wandering third instar larvae were placed on a grape juice plate at room temperature. After becoming acclimated, crawling larvae were gently turned onto their backs (ventral side up) and monitored until they were able to turn back (dorsal side up) and continue their forward movement. The amount of time that it took each larva to complete this task was recorded. Twenty to thirty larvae were used per genotype. Student's t-test was performed to assess statistical significance.
as §1, §2

[7] = test system: Larvae expressing TDPWT in motor neurons; experiment: Larval turning assay, D42>TDPWT; type: in vivo, Drosophila; conditions: 1 μM pioglitazone in food; DMSO 14.5+/−1 sec
Procedure: as §3, §1, §2

[8] = test system: cytochrome P450; conditions: cited from earlier work

SMILES: CCc1ccc(CCOc2ccc(CC3SC(=O)NC3=O)cc2)nc1 (stereo not drawn) [Pioglitazone]
- Av. % rescue (number of rescued adults/total number of pupae × 100%) ([1]; PGZ 1 μM): 19.4%
- Av. % rescue (number of rescued adults/total number of pupae × 100%) ([1]; PGZ 10 μM): 15.0%
- Av. % rescue (number of rescued adults/total number of pupae × 100%) ([1]; PGZ 25 μM): 9.7%
- hazard ratio for mortality [2]: increase in hazard ratio for mortality
- metabolites altered by both pioglitazone and TDPWT [3]: 28
- metabolites altered in opposite direction compared to TDPWT (restoration) [3]: 14
- metabolites further altered in the same direction as TDP-43 (worsening) [3]: 6
- metabolites similarly affected by pioglitazone and TDPWT (no further change) [3]: 8
- saccharopine level, pioglitazone compared to DMSO [3]: 0.67
- N-acetylglutamine level, pioglitazone versus DMSO ([3]; Pvalue<0.05): 0.74
- 4-hydroxybutyrate (GHB) level, pioglitazone compared to DMSO ([3]; Pvalue=0.04): 0.41
- metabolite alterations, drug food versus DMSO ([3]; among a total of 572 metabolites): 111
- pyruvate level, pioglitazone compared to DMSO ([3]; not significant): 0.68
- Av. % rescue (number of rescued adults/total number of pupae × 100%) ([4]; PGZ 1 μM): 15.2%
- Av. % rescue (number of rescued adults/total number of pupae × 100%) ([4]; PGZ 10 μM): 1.7%
- Av. % rescue (number of rescued adults/total number of pupae × 100%) ([4]; PGZ 25 μM): 0.8%
- Preliminary rescue result: adults with normal wings [4]: 1 Adult Normal Wings Adults
- Rescue Effect [4]: 1 adults
- effect on larval turning time in control larvae [5]: no effect
- larval turning time [6]: 17.3 ± 1.1 s
- larval turning time [7]: 9.2 ± 0.7 s

SMILES: Cc1c(C)c2c(c(C)c1O)CCC(C)(COc1ccc(CC3SC(=O)NC3=O)cc1)O2 (stereo not drawn) [Troglitazone]
- activity in high-throughput screen for modulators of cytochrome P450 [8]: active
- Preliminary rescue result: adults with normal wings [4]: 2 Adults Normal Wings
- Rescue Effect [4]: 2 adults
